{
  "source": "paper PMC6240685",
  "about": "“Strong Inhibitory Effect, Low Cytotoxicity and High Plasma Stability of Steroidal Inhibitors of N-Methyl-D-Aspartate Receptors With C-3 Amide Structural Motif” (Frontiers in Pharmacology, 2018)",
  "biological_target": "T1, GluN1/GluN2C receptors (Rattus norvegicus, UniProt P35439+Q00961)",
  "T1 construct": "expressed in transfected cells; host or cells: HEK293",
  "T1 sequence (Q00961 20-1237, other chains not shown)": "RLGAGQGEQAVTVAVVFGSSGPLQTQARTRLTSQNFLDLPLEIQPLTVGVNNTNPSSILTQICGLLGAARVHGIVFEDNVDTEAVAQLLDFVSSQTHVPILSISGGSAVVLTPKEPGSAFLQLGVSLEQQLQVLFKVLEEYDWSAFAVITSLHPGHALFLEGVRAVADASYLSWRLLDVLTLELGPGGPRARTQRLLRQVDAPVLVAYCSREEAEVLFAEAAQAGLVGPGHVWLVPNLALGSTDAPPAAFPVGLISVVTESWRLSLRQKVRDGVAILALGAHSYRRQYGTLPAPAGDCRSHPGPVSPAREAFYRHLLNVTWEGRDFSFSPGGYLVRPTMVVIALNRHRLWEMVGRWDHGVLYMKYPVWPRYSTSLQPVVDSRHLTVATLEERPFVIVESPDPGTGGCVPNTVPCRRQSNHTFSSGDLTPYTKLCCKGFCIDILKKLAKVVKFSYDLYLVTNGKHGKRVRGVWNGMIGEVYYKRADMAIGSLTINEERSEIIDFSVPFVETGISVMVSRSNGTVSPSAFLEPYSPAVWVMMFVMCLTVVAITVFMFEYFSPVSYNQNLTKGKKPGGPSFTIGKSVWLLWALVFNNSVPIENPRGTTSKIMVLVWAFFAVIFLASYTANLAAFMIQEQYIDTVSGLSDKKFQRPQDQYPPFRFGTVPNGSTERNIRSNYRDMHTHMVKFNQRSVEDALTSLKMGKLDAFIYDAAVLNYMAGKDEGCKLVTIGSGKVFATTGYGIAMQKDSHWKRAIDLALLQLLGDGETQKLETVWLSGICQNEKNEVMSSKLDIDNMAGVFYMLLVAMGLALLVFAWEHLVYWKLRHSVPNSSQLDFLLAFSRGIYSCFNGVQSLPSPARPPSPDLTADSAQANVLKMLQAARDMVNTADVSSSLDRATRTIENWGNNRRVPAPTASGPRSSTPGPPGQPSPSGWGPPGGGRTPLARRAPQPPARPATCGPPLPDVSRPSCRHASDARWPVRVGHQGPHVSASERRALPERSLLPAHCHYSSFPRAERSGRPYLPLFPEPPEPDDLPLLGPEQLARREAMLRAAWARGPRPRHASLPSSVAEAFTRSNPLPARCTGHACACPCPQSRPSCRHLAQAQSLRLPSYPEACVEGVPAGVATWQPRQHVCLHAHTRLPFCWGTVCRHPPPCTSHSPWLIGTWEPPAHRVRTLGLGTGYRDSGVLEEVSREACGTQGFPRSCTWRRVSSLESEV",
  "assay": "Patch-clamp inhibition of GluN1/GluN2C receptors in transfected HEK293 cells",
  "format": "cell-based",
  "details": "1 mM glutamate and 10 μM glycine",
  "method": "FIGURE 7 Concentration–response properties of compound 6 on GluN1/GluN2A-D receptors. (A) Examples of traces obtained from HEK293 cells transfected with cDNAs encoding GluN1/GluN2A, GluN1/GluN2B, GluN1/GluN2C, and GluN1/GluN2D receptors. Agonists (1 mM glutamate and 10 μM glycine) were applied alone and simultaneously with compound 6 (10 μM) to evaluate the inhibitory effect of compound 6 on NMDAR mediated currents (duration of glutamate and steroid application is indicated by filled and open bars, respectively). (B) Concentration–response curves for the compound 6 effect at GluN1/GluN2A-D receptors. Data points are averaged values of normalized responses from at least four HEK293 cells. Error bars represent SD.\nElectrophysiological experiments were performed on HEK293 cells transfected with plasmids encoding rat GluN1-1a/GluN2A-D and GFP genes as described previously, ([Petrovic et al., 2005]; [Cais et al., 2008]; [Korinek et al., 2010]) or on primary hippocampal neurons prepared from P0–P1 rats, plated on collagen/poly-D-lysine-coated glass coverslips at a density of ∼50,000 cells/cm^2, and grown in Neurobasal A medium with B27 Supplement (Gibco). Agonist-induced responses were voltage-clamped at a holding potential of −60 mV. […] Agonist-induced responses were low-pass filtered at 2 kHz, digitally sampled at 5 kHz, and analyzed with pClamp software version 10.5 (Molecular Devices). […]",
  "data": [
    {"molecule": "C[C@@]12CCC[C@H]1[C@@H]1CC[C@@H]3C[C@H](NC(=O)[C@@H](N)CC(=O)O)CC[C@]3(C)[C@H]1CC2", "note": "[Compound 6, (S)-3-amino-4-(((3R,5R,8S,9S,10S,13S,14S)-10,13-dimethylhexadecahydro-1H-cyclopenta[a]phenanthren-3-yl)amino)-4-oxobutanoic acid]", "values": [
      {"measurement": "h ± SD (apparent Hill coefficient)", "value": "1.6 ± 0.3"},
      {"measurement": "IC50", "setting": "concentration-response", "value": "7.3 ± 0.8", "unit": "µM"}
    ]}
  ]
}
